Results: patent publication US10894946B2, “Multiloop engineered heart muscle tissue” (Tissue Systems Holding GmbH, priority 2005, dated 2021)
“Also recorded” adds a separate entry of the source.

Test system: engineered heart tissue (EHT) rings from heart cells of neonatal rats
Test: isometric contraction experiments of single EHT rings (twitch tension, calcium response curves)
Format: cell-based, rat
Conditions: culture medium supplemented with 10 pg/ml insulin vs untreated controls; n=4 vs n=3
Protocol: In a further step, the force-generating engineered heart tissue rings, which are in contact with each other, are cultured under conditions which allow the fusion of the contacted ring structures to form an artificial heart muscle construct. For this purpose, the engineered heart tissue rings are normally incubated in culture dishes, wherein the rings are submersed in appropriate culture medium. If a holding device is used for culturing, the device should be designed to allow the tissue rings to stay in continuous contact with the culture medium. The choice of the culture medium is not critical. Conventional media for culturing cardiac myocytes may be used. Such media are known in the art and described, for example, in Zimmermann, W. H. et al., Circulation 106, I 151-7 (2002) and published International Application WO 01/55297. […]
FIGS. 1A-1F show the influences of oxygen, load, and insulin in isometric contraction experiments in single engineered heart tissue (EHT) rings (TT: twitch tension). […] To increase size, 5 EHT rings (FIG. 1D) were stacked in a custom made device that facilitate EHT fusion and contractions under auxotonic load (FIG. 1E), resulting in synchronously contracting multiring EHT constructs (FIG. 1F) ready for in vivo engraftment. *P<0.05 vs. 21% 02, static load, and culture in the absence of insulin (Ctr.), respectively by repeated ANOVA. […]

With insulin as the substance, how does the “contracting characteristics (twitch tension) of EHT rings” value read?
The value was “benefited; also recorded: enhanced contracting characteristics”.
